According to the NIST ThermoML archive (doi:10.1021/acs.jced.5b00049):
Numbers after ± are expanded uncertainties.

Assay: xn = mol fraction of the nth substance listed
Settings: Liquid

CCCCCCCCCCCCCC [tetradecane] + O=C=O
Settings	mass density [kg/m3]
312.99 K, 19070 kPa, x2 = 0.7534	819.95 ± 1.2
313 K, 15040 kPa, x2 = 0.7534	811.66 ± 1.2
313.01 K, 17010 kPa, x2 = 0.7534	815.79 ± 1.2
313.01 K, 18060 kPa, x2 = 0.7534	817.99 ± 1.2
313.05 K, 10040 kPa, x2 = 0.7534	799.71 ± 1.1
313.05 K, 11940 kPa, x2 = 0.7534	804.49 ± 1.2
313.07 K, 10010 kPa, x2 = 0.2469	761.87 ± 1.1
313.08 K, 12050 kPa, x2 = 0.2469	763.39 ± 1.1
313.08 K, 13990 kPa, x2 = 0.2469	764.87 ± 1.1
313.08 K, 16020 kPa, x2 = 0.2469	766.36 ± 1.1
313.09 K, 18000 kPa, x2 = 0.2469	767.75 ± 1.1
313.11 K, 19000 kPa, x2 = 0.2469	768.47 ± 1.1
313.12 K, 13940 kPa, x2 = 0.7534	809.04 ± 1.2
313.12 K, 19060 kPa, x2 = 0.8773	833.41 ± 1.2
313.13 K, 16010 kPa, x2 = 0.7534	813.59 ± 1.2
313.14 K, 13040 kPa, x2 = 0.7534	806.93 ± 1.2
313.16 K, 11930 kPa, x2 = 0.5241	778.74 ± 1.1
313.16 K, 19060 kPa, x2 = 0.5241	785.72 ± 1.1
313.17 K, 12990 kPa, x2 = 0.8773	810.26 ± 1.2
313.17 K, 13930 kPa, x2 = 0.5241	780.74 ± 1.1
313.17 K, 14050 kPa, x2 = 0.8773	813.95 ± 1.2
313.18 K, 16020 kPa, x2 = 0.8773	822.71 ± 1.2
313.18 K, 17010 kPa, x2 = 0.8773	826.33 ± 1.2
313.19 K, 9970 kPa, x2 = 0.8773	799.39 ± 1.1
313.19 K, 10110 kPa, x2 = 0.5241	776.82 ± 1.1
313.19 K, 18040 kPa, x2 = 0.8773	829.7 ± 1.2
313.2 K, 11990 kPa, x2 = 0.8773	806.52 ± 1.2
313.21 K, 18060 kPa, x2 = 0.5241	784.76 ± 1.1
313.23 K, 15010 kPa, x2 = 0.8773	818.7 ± 1.2
313.35 K, 16050 kPa, x2 = 0.5241	782.84 ± 1.1
323.11 K, 10980 kPa, x2 = 0.8773	783.24 ± 1.1
323.11 K, 14020 kPa, x2 = 0.2469	757.81 ± 1.1
323.11 K, 19020 kPa, x2 = 0.8773	809.81 ± 1.2
323.12 K, 16020 kPa, x2 = 0.2469	759.35 ± 1.1
323.14 K, 10120 kPa, x2 = 0.2469	754.69 ± 1.1
323.14 K, 12060 kPa, x2 = 0.2469	756.22 ± 1.1
323.14 K, 13020 kPa, x2 = 0.8773	788.73 ± 1.1
323.14 K, 14050 kPa, x2 = 0.8773	791.99 ± 1.1
323.14 K, 16040 kPa, x2 = 0.8773	799.2 ± 1.1
323.14 K, 17040 kPa, x2 = 0.8773	801.18 ± 1.1
323.14 K, 18060 kPa, x2 = 0.8773	805.9 ± 1.2
323.14 K, 18980 kPa, x2 = 0.2469	761.61 ± 1.1
323.15 K, 10070 kPa, x2 = 0.7534	782.23 ± 1.1
323.15 K, 12030 kPa, x2 = 0.7534	787.2 ± 1.1
323.15 K, 12050 kPa, x2 = 0.8773	786.07 ± 1.1
323.15 K, 13000 kPa, x2 = 0.7534	789.82 ± 1.1
323.15 K, 14020 kPa, x2 = 0.7534	791.84 ± 1.1
323.15 K, 15060 kPa, x2 = 0.7534	794.75 ± 1.1
323.15 K, 16040 kPa, x2 = 0.7534	796.67 ± 1.1
323.15 K, 17010 kPa, x2 = 0.7534	799.28 ± 1.1
323.15 K, 18070 kPa, x2 = 0.7534	801.5 ± 1.2
323.15 K, 19020 kPa, x2 = 0.7534	803.65 ± 1.2
323.16 K, 15050 kPa, x2 = 0.8773	795.16 ± 1.1
323.19 K, 17960 kPa, x2 = 0.2469	760.81 ± 1.1
323.21 K, 16080 kPa, x2 = 0.5241	773.72 ± 1.1
323.22 K, 18050 kPa, x2 = 0.5241	775.72 ± 1.1
323.22 K, 19040 kPa, x2 = 0.5241	776.7 ± 1.1
323.23 K, 10030 kPa, x2 = 0.5241	767.22 ± 1.1
323.23 K, 12040 kPa, x2 = 0.5241	769.42 ± 1.1
323.23 K, 13980 kPa, x2 = 0.5241	771.51 ± 1.1
333.07 K, 10050 kPa, x2 = 0.7534	764.82 ± 1.1
333.07 K, 14030 kPa, x2 = 0.7534	774.55 ± 1.1
333.07 K, 17060 kPa, x2 = 0.7534	782.56 ± 1.1
333.07 K, 18060 kPa, x2 = 0.7534	784.44 ± 1.1
333.09 K, 10100 kPa, x2 = 0.5241	757.94 ± 1.1
333.11 K, 13040 kPa, x2 = 0.7534	771.85 ± 1.1
333.11 K, 16040 kPa, x2 = 0.2469	752.33 ± 1.1
333.11 K, 18060 kPa, x2 = 0.5241	766.9 ± 1.1
333.11 K, 18060 kPa, x2 = 0.8773	785.49 ± 1.1
333.12 K, 15020 kPa, x2 = 0.7534	777.38 ± 1.1
333.12 K, 16040 kPa, x2 = 0.7534	779.31 ± 1.1
333.13 K, 10010 kPa, x2 = 0.2469	747.3 ± 1.1
333.13 K, 13970 kPa, x2 = 0.2469	750.65 ± 1.1
333.13 K, 19050 kPa, x2 = 0.8773	788.14 ± 1.1
333.13 K, 19080 kPa, x2 = 0.5241	767.96 ± 1.1
333.14 K, 16050 kPa, x2 = 0.8773	779.75 ± 1.1
333.14 K, 17040 kPa, x2 = 0.8773	782.59 ± 1.1
333.15 K, 11930 kPa, x2 = 0.5241	760.02 ± 1.1
333.15 K, 12060 kPa, x2 = 0.2469	749.05 ± 1.1
333.15 K, 15990 kPa, x2 = 0.5241	764.66 ± 1.1
333.15 K, 17980 kPa, x2 = 0.2469	753.84 ± 1.1
333.16 K, 18980 kPa, x2 = 0.2469	754.7 ± 1.1
333.17 K, 12050 kPa, x2 = 0.7534	769.75 ± 1.1
333.17 K, 19050 kPa, x2 = 0.7534	786.81 ± 1.1
333.18 K, 14030 kPa, x2 = 0.8773	774.07 ± 1.1
333.19 K, 13020 kPa, x2 = 0.8773	771.46 ± 1.1
333.2 K, 13970 kPa, x2 = 0.5241	762.35 ± 1.1
333.22 K, 15040 kPa, x2 = 0.8773	776.33 ± 1.1
343.18 K, 13030 kPa, x2 = 0.7534	757.6 ± 1.1
343.2 K, 14070 kPa, x2 = 0.7534	759.71 ± 1.1
343.22 K, 10080 kPa, x2 = 0.5241	748.36 ± 1.1
343.24 K, 18020 kPa, x2 = 0.2469	746.97 ± 1.1
343.25 K, 10080 kPa, x2 = 0.2469	739.8 ± 1.1
343.25 K, 12000 kPa, x2 = 0.2469	741.71 ± 1.1
343.25 K, 13970 kPa, x2 = 0.5241	753.12 ± 1.1
343.26 K, 11930 kPa, x2 = 0.5241	750.66 ± 1.1
343.26 K, 17070 kPa, x2 = 0.8773	763.58 ± 1.1
343.27 K, 16010 kPa, x2 = 0.2469	745.25 ± 1.1
343.27 K, 19050 kPa, x2 = 0.2469	747.79 ± 1.1
343.28 K, 16050 kPa, x2 = 0.8773	759.7 ± 1.1
343.28 K, 18030 kPa, x2 = 0.7534	768.86 ± 1.1
343.29 K, 11990 kPa, x2 = 0.7534	755.9 ± 1.1
343.29 K, 15010 kPa, x2 = 0.8773	756.06 ± 1.1
343.3 K, 18040 kPa, x2 = 0.8773	766.93 ± 1.1
343.32 K, 15970 kPa, x2 = 0.7534	764.11 ± 1.1
343.32 K, 19050 kPa, x2 = 0.8773	770.12 ± 1.1
343.34 K, 14060 kPa, x2 = 0.2469	743.54 ± 1.1
343.34 K, 16930 kPa, x2 = 0.7534	766.37 ± 1.1
343.36 K, 18040 kPa, x2 = 0.5241	757.81 ± 1.1
343.37 K, 15000 kPa, x2 = 0.7534	761.76 ± 1.1
343.37 K, 15990 kPa, x2 = 0.5241	755.45 ± 1.1
343.37 K, 19030 kPa, x2 = 0.7534	770.9 ± 1.1
343.39 K, 19080 kPa, x2 = 0.5241	758.96 ± 1.1
353.36 K, 9980 kPa, x2 = 0.5241	738.86 ± 1.1
353.36 K, 12050 kPa, x2 = 0.7534	743.36 ± 1.1
353.39 K, 11960 kPa, x2 = 0.5241	741.42 ± 1.1
353.39 K, 17030 kPa, x2 = 0.7534	753.15 ± 1.1
353.39 K, 18060 kPa, x2 = 0.5241	748.96 ± 1.1
353.4 K, 18070 kPa, x2 = 0.2469	741.03 ± 1.1
353.41 K, 13000 kPa, x2 = 0.7534	744.77 ± 1.1
353.43 K, 11990 kPa, x2 = 0.2469	735.13 ± 1.1
353.43 K, 14020 kPa, x2 = 0.5241	744.02 ± 1.1
353.43 K, 16060 kPa, x2 = 0.5241	746.56 ± 1.1
353.44 K, 19060 kPa, x2 = 0.5241	750.06 ± 1.1
353.46 K, 15040 kPa, x2 = 0.7534	748.68 ± 1.1
353.46 K, 15990 kPa, x2 = 0.7534	750.82 ± 1.1
353.46 K, 18010 kPa, x2 = 0.8773	751.14 ± 1.1
353.46 K, 18040 kPa, x2 = 0.7534	755.21 ± 1.1
353.47 K, 14010 kPa, x2 = 0.7534	746.82 ± 1.1
353.47 K, 19020 kPa, x2 = 0.2469	741.82 ± 1.1
353.47 K, 19040 kPa, x2 = 0.8773	754.52 ± 1.1
353.48 K, 9970 kPa, x2 = 0.2469	733.1 ± 1.1
353.48 K, 14000 kPa, x2 = 0.2469	737.01 ± 1.1
353.48 K, 17020 kPa, x2 = 0.8773	747.37 ± 1.1
353.52 K, 16030 kPa, x2 = 0.2469	738.93 ± 1.1
353.54 K, 18990 kPa, x2 = 0.7534	756.97 ± 1.1
